Results taken from the NIST ThermoML archive (doi:10.1021/acs.jced.8b00201).

Test: xn = mol fraction of the nth substance listed
Conditions: 100 kPa, Liquid; for viscosity: Concentric cylinders viscometry; for mass density: Vibrating tube method

O=C1CCCCC1 [cyclohexanone] + CCCCCCCCCCO
Conditions | mass density [kg/m3] | viscosity [mPa·s]
293.15 K, x1 = 0.0807 | 834.5 | 12.23
293.15 K, x1 = 0.1613 | 840 | 10.39
293.15 K, x1 = 0.2387 | 845.6 | 8.73
293.15 K, x1 = 0.3519 | 855.1 | 6.64
293.15 K, x1 = 0.4407 | 863.4 | 5.35
293.15 K, x1 = 0.5568 | 875.9 | 3.94
293.15 K, x1 = 0.6517 | 887.7 | 3.08
293.15 K, x1 = 0.7412 | 900.4 | 2.54
293.15 K, x1 = 0.8518 | 918.6 | 2.22
293.15 K, x1 = 0.9441 | 936.5 | 2.17
293.15 K, x1 = 1 | 948.8 | 2.3
298.15 K, x1 = 0.0807 | 830.9 | 10
298.15 K, x1 = 0.1613 | 836.4 | 8.43
298.15 K, x1 = 0.2387 | 841.8 | 7.18
298.15 K, x1 = 0.3519 | 851 | 5.67
298.15 K, x1 = 0.4407 | 859.2 | 4.69
298.15 K, x1 = 0.5568 | 871.4 | 3.56
298.15 K, x1 = 0.6517 | 883 | 2.87
298.15 K, x1 = 0.7412 | 895.4 | 2.43
298.15 K, x1 = 0.8518 | 913.3 | 2.13
298.15 K, x1 = 0.9441 | 930.9 | 2.08
298.15 K, x1 = 1 | 943.1 | 2.09
303.15 K, x1 = 0.0807 | 827.4 | 8.39
303.15 K, x1 = 0.1613 | 832.6 | 7.21
303.15 K, x1 = 0.2387 | 838.1 | 6.19
303.15 K, x1 = 0.3519 | 847.2 | 4.87
303.15 K, x1 = 0.4407 | 855.2 | 4.04
303.15 K, x1 = 0.5568 | 867.3 | 3.16
303.15 K, x1 = 0.6517 | 878.7 | 2.6
303.15 K, x1 = 0.7412 | 891 | 2.23
303.15 K, x1 = 0.8518 | 908.7 | 1.97
303.15 K, x1 = 0.9441 | 926.1 | 1.89
303.15 K, x1 = 1 | 938.2 | 1.91
308.15 K, x1 = 0.0807 | 823.9 | 7.09
308.15 K, x1 = 0.1613 | 829.1 | 6.14
308.15 K, x1 = 0.2387 | 834.5 | 5.38
308.15 K, x1 = 0.3519 | 843.4 | 4.37
308.15 K, x1 = 0.4407 | 851.4 | 3.69
308.15 K, x1 = 0.5568 | 863.3 | 2.94
308.15 K, x1 = 0.6517 | 874.6 | 2.45
308.15 K, x1 = 0.7412 | 886.7 | 2.11
308.15 K, x1 = 0.8518 | 904.2 | 1.84
308.15 K, x1 = 0.9441 | 921.5 | 1.73
308.15 K, x1 = 1 | 933.5 | 1.75
313.15 K, x1 = 0.0807 | 820.4 | 5.99
313.15 K, x1 = 0.1613 | 825.5 | 5.26
313.15 K, x1 = 0.2387 | 830.8 | 4.6
313.15 K, x1 = 0.3519 | 839.6 | 3.75
313.15 K, x1 = 0.4407 | 847.4 | 3.17
313.15 K, x1 = 0.5568 | 859.2 | 2.6
313.15 K, x1 = 0.6517 | 870.3 | 2.21
313.15 K, x1 = 0.7412 | 882.4 | 1.92
313.15 K, x1 = 0.8518 | 899.7 | 1.7
313.15 K, x1 = 0.9441 | 916.9 | 1.57
313.15 K, x1 = 1 | 928.8 | 1.6
318.15 K, x1 = 0.0807 | 816.9 | 5.08
318.15 K, x1 = 0.1613 | 821.9 | 4.45
318.15 K, x1 = 0.2387 | 827.2 | 3.86
318.15 K, x1 = 0.3519 | 835.9 | 3.15
318.15 K, x1 = 0.4407 | 843.6 | 2.69
318.15 K, x1 = 0.5568 | 855.3 | 2.19
318.15 K, x1 = 0.6517 | 866.3 | 1.88
318.15 K, x1 = 0.7412 | 878.3 | 1.67
318.15 K, x1 = 0.8518 | 895.5 | 1.51
318.15 K, x1 = 0.9441 | 912.6 | 1.44
318.15 K, x1 = 1 | 924.4 | 1.46
323.15 K, x1 = 0.0807 | 813.3 | 4.41
323.15 K, x1 = 0.1613 | 818.3 | 3.88
323.15 K, x1 = 0.2387 | 823.5 | 3.43
323.15 K, x1 = 0.3519 | 832.1 | 2.84
323.15 K, x1 = 0.4407 | 839.8 | 2.46
323.15 K, x1 = 0.5568 | 851.4 | 2.05
323.15 K, x1 = 0.6517 | 862.5 | 1.78
323.15 K, x1 = 0.7412 | 874.4 | 1.57
323.15 K, x1 = 0.8518 | 891.7 | 1.42
323.15 K, x1 = 0.9441 | 908.8 | 1.35
323.15 K, x1 = 1 | 920.7 | 1.34
